Experimental findings from PMC7221826, “5-Oxo-hexahydroquinoline Derivatives and Their Tetrahydroquinoline Counterparts as Multidrug Resistance Reversal Agents” (Molecules, 2020) are described below.

One may read the IC50 as the concentration that gives 50% inhibition. As usually defined, the melting point is the temperature, or range, at which the solid turns liquid.

For series [1], the target named is T1, P-gp (Homo sapiens, UniProt P08183).
T1 construct: MES-SA-DX5 is a resistant cell line, which overexpresses P-gp as a result of constant exposure to doxorubicin; host or cells: MES-SA-DX5 human uterine sarcoma cells
T1 sequence (P08183 whole entry): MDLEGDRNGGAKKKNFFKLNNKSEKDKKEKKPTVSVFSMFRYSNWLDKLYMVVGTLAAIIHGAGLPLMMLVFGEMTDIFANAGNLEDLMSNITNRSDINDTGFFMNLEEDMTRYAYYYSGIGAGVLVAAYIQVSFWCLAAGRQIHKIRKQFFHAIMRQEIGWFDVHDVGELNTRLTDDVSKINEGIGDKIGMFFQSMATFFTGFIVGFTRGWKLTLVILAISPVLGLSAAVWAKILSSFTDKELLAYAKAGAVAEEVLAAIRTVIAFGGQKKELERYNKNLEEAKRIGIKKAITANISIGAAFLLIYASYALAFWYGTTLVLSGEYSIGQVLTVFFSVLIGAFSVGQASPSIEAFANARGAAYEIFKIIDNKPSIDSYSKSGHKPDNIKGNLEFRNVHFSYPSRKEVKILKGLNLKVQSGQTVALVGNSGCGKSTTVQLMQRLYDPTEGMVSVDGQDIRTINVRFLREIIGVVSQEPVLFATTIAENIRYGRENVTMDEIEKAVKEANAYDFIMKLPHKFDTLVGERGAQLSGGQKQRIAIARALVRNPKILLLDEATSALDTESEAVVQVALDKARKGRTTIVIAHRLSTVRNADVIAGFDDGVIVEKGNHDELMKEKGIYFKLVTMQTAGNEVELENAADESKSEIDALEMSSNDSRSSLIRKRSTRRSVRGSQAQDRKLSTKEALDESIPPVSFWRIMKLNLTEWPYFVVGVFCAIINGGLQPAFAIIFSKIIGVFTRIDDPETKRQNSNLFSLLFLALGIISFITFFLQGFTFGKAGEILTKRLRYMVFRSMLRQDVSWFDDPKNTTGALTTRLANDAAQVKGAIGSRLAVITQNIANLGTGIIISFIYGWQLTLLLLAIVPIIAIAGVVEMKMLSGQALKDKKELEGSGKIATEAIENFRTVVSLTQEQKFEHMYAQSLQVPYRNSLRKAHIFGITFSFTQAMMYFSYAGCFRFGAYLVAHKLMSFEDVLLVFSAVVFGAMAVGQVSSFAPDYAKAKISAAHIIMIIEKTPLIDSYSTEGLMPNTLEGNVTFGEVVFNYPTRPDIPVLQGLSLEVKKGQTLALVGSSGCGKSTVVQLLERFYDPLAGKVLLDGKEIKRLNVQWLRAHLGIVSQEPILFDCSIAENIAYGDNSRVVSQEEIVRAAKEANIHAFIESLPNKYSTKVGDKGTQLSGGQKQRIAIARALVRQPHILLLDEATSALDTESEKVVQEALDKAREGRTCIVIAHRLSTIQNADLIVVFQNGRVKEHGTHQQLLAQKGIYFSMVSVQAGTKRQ
In words: MDR reversal assay: flow cytometric detection of Rhodamine123 efflux/accumulation in MES-SA-DX5 cells. The note with it: compounds at 5, 10 and 25 µM, 5 µM Rh123. The series is classed as cell-based. How it is done: Rhodamine 123 (Rh123) is a well-known substrate of P-gp and it is readily pumped out of the cells by this ABC transporter. The amount of retained Rh123 in the cells indicates the efflux function of the target transporter. Flow cytometric analysis was used for assessment of intracellular Rh123 as previously described.
Briefly, a suspension of the multidrug resistant uterine sarcoma MES-SA-DX5 cells at a density of 5 × 10^5 cells/mL in growth medium was prepared. Four-hundred microliters (400 µL) of the synthesized compounds with final concentration of 5, 10, and 25 µM were added to 500 µL of the cell suspension. Verapamil was also tested as a positive control. After an incubation of 20 min, 50 µL of Rh123 at a final concentration of 5 µM was added and incubated for further 30 min at 37 °C. The cells were then centrifuged and washed twice with ice-cold PBS, and then resuspended in PBS and kept on ice. Rh123 accumulated in cells was then quantified by a FACSCalibur flow cytometer (Becton Dickinson, San Jose, CA, USA) with excitation and emission wavelengths of 488 and 530 nm, respectively. Geometric means of fluorescence intensity values were determined using Flowing Software (http://flowingsoftware.btk.fi/).
Accumulation of Rhodamine123 (Rh123), caused by inhibition of P-gp-mediated efflux, was determined by flow cytometry in the multidrug resistant uterine sarcoma MES-SA-DX5 cell line. Verapamil was used as a positive control. MES-SA-DX5 is a resistant cell line, which overexpresses P-gp as a result of constant exposure to doxorubicin. Alterations in the amount of the fluorescent Rh123 retained inside the MES-SA-DX5 cells can be plausibly related to the inhibition of the activity of P-gp efflux pump in the cells (Figure 1). The ratio of the geometric mean value of cells treated with synthesized compounds to the geometric mean value of the control untreated cells are show in Figure 2.
Figure 2 MDR reversal assessed by flow cytometric detection of Rhodamine123 efflux in MES-SA-DX5 cells. Cells were suspended in RPMI 1640 and treated with verapamil (Ver, positive control) or synthesized derivatives. After incubation for 20 min, 5 μM Rh123 was added, the cells were incubated for another […] at 37 °C and then centrifuged and washed twice with ice-cold PBS and resuspended in PBS. The fluorescence caused by the presence of Rh123 in cells was measured using a flow cytometer with excitation and emission wavelengths of 488 nm and 530 nm, respectively. The values represent the mean ± S.E.M. of 3–5 experiments. * The difference between treated and controlled cells are statistically significant (p ˂ 0.05).
On the technique in general: Flow cytometry measures light scatter and fluorescence of single cells or particles in a stream.

In series [2] the test system is MES-SA-DX5 cells. In words: Cell cycle analysis by propidium iodide (PI)-RNase flow cytometry. The following applies: 24 h. The series is classed as cell-based, human. The arrangement: Sub G1: unit not given here. How it is done:
The analysis of cells in different phases of cell cycle and sub-G1 was performed using propidium iodide (PI)-RNase assay by flow cytometry. MES-SA-DX5 cells were seeded in 12-well plates (1 × 10^6 cells/well) and treated with different concentrations of synthesized compounds for 24 h. The cells were then collected, washed with PBS, and fixed with 70% ethanol overnight at –20 °C. After at least 24 h, fixed cells were washed with PBS and subsequently stained with a DNA staining solution containing PI 20 μg/mL and RNase 200 μg/mL at room temperature for 30 min in the dark. Twenty thousand cells of each sample were analyzed using a BD FACSCalibur flow cytometer (BD Biosciences, USA) and the amount of the cells in sub-G1, G0/G1, S, and G2/M phases were estimated using CellQuest (Becton Dickinson, San Jose, CA, USA) software.
Therefore, it could be concluded that these compounds cause cytotoxicity in drug resistant MES-SA-DX5 cells by induction of apoptosis in these cells.
Figure 3 Effect of synthesized derivatives on cell cycle alterations in MES-SA-DX5 drug resistant cells. The cells in different phases of cell cycle were monitored using propidium iodide (PI)-RNase assay by flow cytometry. MES-SA-DX5 cells were seeded in 12-well plates (1 × 10^6 cells/well) and treated with different concentrations of synthesized compounds for 24 h. The cells were then collected, washed with PBS and fixed with 70% ethanol overnight at –20 °C. After at least 24 h, fixed cells were washed with PBS and subsequently stained with a DNA staining solution containing PI 20 μg/mL and RNase 200 μg/mL at room temperature for 30 min in the dark. Twenty thousand cells of each sample were analyzed using a FACS Calibur flow cytometer (BD Biosciences, USA). Representative histograms of cells treated with synthesized compounds are shown. An increase in sub-G1 phase cells could be observed after treatment with A1, A2, B1, and B2 compounds.

In series [3] the test system is MCF-7. The series is described as follows: MTT cell viability assay, MCF-7. It is filed as cell-based, human. The following applies: Homo sapiens, MCF7, 72 h, read-out: IC50 (µM) in Cultured Cells MCF-7. The source says:
(§1) Cell lines used for cytotoxicity assays included MCF-7 (human breast adenocarcinoma), A549 (human lung adenocarcinoma), K562 (human chronic myelogenous leukemia) and HEK-293 (human embryonic kidney) cells and were obtained from the Iranian Biological Resource Center, Tehran, Iran. MES-SA-DX5 multidrug resistant human uterine sarcoma, over-expressing P-gp and their parental non-resistant MES-SA cell lines were purchased from Sigma-Aldrich (St. Louis, MO, USA). All cells, except for HEK-293, were cultured in RPMI 1640 supplemented with 10% FBS and 100 units/mL penicillin-streptomycin at 37 °C in humidified air containing 5% CO2. HEK-293 cells were maintained in DMEM-F12 medium containing L-glutamine 2 mM supplemented with FBS and penicillin-streptomycin. MES-SA-DX5 cells were maintained in media containing 100 nM doxorubicin in order to ensure that only drug-resistant cells continue to grow.
(§2) Cytotoxicity of the test compounds were evaluated by MTT assay. In this method, reduction of MTT, a yellow tetrazolium salt to the purple formazan, by cellular dehydrogenase enzymes is determined as an index of cell viability. Cancer cells were seeded into 96-well plates (3–5 × 10^3 cells/well) and incubated for 24 h at 37 °C. Afterwards, four different concentrations of synthesized derivatives were added in triplicate and the cells were incubated at 37 °C for another 72 h, after which the media was replaced with MTT solution at a concentration of 0.5 mg/mL was added for MTT assay. After another 4h, formazan crystals were dissolved in 200 μL DMSO for 90 min and absorbance was measured at a wavelength of 570 nm with background correction at 650 nm using a microplate reader (model 680, Bio-Rad, Hercules, CA, USA) and IC50 for each compound was calculated with CurveExpert version 1.34 for Windows.
For orientation: Formazan colour is commonly taken as a measure of viable cells.

Series [4] deals with A-549. In words: MTT cell viability assay, A-549. The series is classed as cell-based, human. The note with it: Homo sapiens, A549, 72 h, read-out: IC50 (µM) in Cultured Cells A-549.
Excerpt: as §1, §2

Series [5] relates to K562. In words: MTT cell viability assay, K562. It is filed as cell-based, human. The following applies: Homo sapiens, K562, 72 h, read-out: IC50 (µM) in Cultured Cells K562.
Excerpt: as §1, §2

Series [6] has as its system MES-SA-DX5. The series is described as follows: MTT cell viability assay, MES-SA-DX5. It is filed as cell-based, human. The following applies: Homo sapiens, MES-SA/Dx5, 72 h, multidrug resistant, P-gp overexpressing, read-out: IC50 (µM) in Cultured Cells MES-SA-DX5.
Excerpt: as §1, §2

Series [7] has as its system MES-SA. The series is described as follows: MTT cell viability assay, MES-SA. The series is classed as cell-based, human. The following applies: MTT; for IC50: Homo sapiens, MES-SA, 72 h, parental non-resistant, read-out: IC50 (µM) in Cultured Cells MES-SA.
Excerpt: as §1, §2

Series [8] concerns HEK-293. The series is described as follows: MTT cell viability assay, HEK-293. It is filed as cell-based, human. The following applies: Homo sapiens, HEK293, 72 h, non-cancerous, read-out: IC50 (µM) in Cultured Cells HEK-293.
Excerpt: as §1, §2

Structures are written as SMILES. Entries after “also recorded” stand apart in the source; their conditions may differ.

In turn, `Cc1nc(NC(=O)c2c(C)nc3c(c2-c2ccc(Cl)cc2Cl)C(=O)CCC3)cs1` [Compound B1, 4-(2,4-Dichlorophenyl)-2-methyl-N-(2-methylthiazol-4-yl)-5-oxo-5,6,7,8-tetrahydroquinoline-3-carboxamide] returned a melting point of 248 °C. Also, in [1], the “P-gp inhibitory activity (Rh123 accumulation)” value is on record as “significantly blocked P-gp efflux”. In [2] (10 µM), the G0/G1 is on record as 49.10 ± 3.7, the G2/M came out at 29.03 ± 2.1, the S is 21.27 ± 2.1 and the “Sub G1” value is on record as 0.64 ± 0.1. Further, in series [2] (25 µM), the G0/G1 worked out at 51.13 ± 2.4, the G2/M is 27.03 ± 0.6, the S is listed as 20.90 ± 2.0 and the “Sub G1” value was found to be 0.91 ± 0.0. Besides, in series [2] (100 µM), the S worked out at 25.17 ± 0.7. Besides, in [3], the IC50 worked out at 47.1 ± 2.1 µM. Besides, the IC50 in series [4] stood at 60 ± 3 µM. In series [5], the IC50 is 6.7 ± 0.6 µM. For the same molecule, in series [6], the IC50 worked out at 39.8 ± 1.6 µM. Moreover, in series [7], the IC50 is 55.6 ± 2.4 µM. Also, the IC50 in series [8] stood at 39.9 ± 5.4 µM.

The molecule `Cc1nc(NC(=O)c2c(C)nc3c(c2-c2ccc(Br)cc2)C(=O)CCC3)cs1` [Compound B2, 4-(4-Bromophenyl)-2-methyl-N-(2-methylthiazol-4-yl)-5-oxo-5,6,7,8-tetrahydroquinoline-3-carboxamide] gave a melting point of 261 °C. Besides, in [1], the “P-gp inhibitory activity (Rh123 accumulation)” value is reported as “significantly blocked P-gp efflux; also recorded: highest P-gp inhibitory activities”. Besides, in series [2] (10 µM), the G0/G1 was determined as 53.00 ± 3.6, the G2/M worked out at 24.13 ± 2.4, the S was 21.80 ± 1.5 and the “Sub G1” value is 0.96 ± 0.1. In [2] (25 µM), the G0/G1 was 55.83 ± 2.6, the G2/M turned out to be 22.23 ± 1.4, the S is 20.30 ± 1.7 and the “Sub G1” value worked out at 1.57 ± 0.4. In series [2] (100 µM), this molecule gave a G0/G1 of 47.00 ± 0.6, a G2/M of 29.27 ± 1.8 and an S of 19.48 ± 1.8. Also, in series [3], the IC50 is 77.7 ± 8.7 µM. In addition, the IC50 in series [4] came out at 86.8 ± 5 µM. The IC50 in series [5] was 10.1 ± 1.5 µM. The IC50 in [6] was determined as 43.6 ± 2.8 µM. Further, in [7], the IC50 was > 100 µM and the “effect against parental non-resistant MES-SA cells” value is recorded as “did not show any effect”. Also, the IC50 in series [8] is > 50 µM.
